Experimental data reported in PubChem BioAssay (NCI).
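Where inhibition never reached the appropriate level, the endpoint shown equals the highest concentration tested. Otherwise, values were interpolated linearly from a five-concentration, 48-hour dose response in 96-well plates. The concentration for full growth arrest is given as TGI.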

Legend:
Experiment in all cases: growth of human tumour cells (NCI), 48 h
[1] = test system: A498 renal
[2] = test system: A549 NSCLC
[3] = test system: ACHN renal
[4] = test system: BT-549 breast
[5] = test system: CAKI-1 renal
[6] = test system: CCRF-CEM leukemia
[7] = test system: COLO 205 colon
[8] = test system: DU-145 prostate
[9] = test system: EKVX NSCLC
[10] = test system: HCC-2998 colon
[11] = test system: HCT-116 colon
[12] = test system: HCT-15 colon
[13] = test system: HL-60(TB) leukemia
[14] = test system: HOP-62 NSCLC
[15] = test system: HOP-92 NSCLC
[16] = test system: HS 578T breast
[17] = test system: HT29 colon
[18] = test system: IGROV1 ovarian
[19] = test system: K-562 leukemia
[20] = test system: KM12 colon
[21] = test system: LOX IMVI melanoma
[22] = test system: M14 melanoma
[23] = test system: MALME-3M melanoma
[24] = test system: MCF7 breast
[25] = test system: MDA-MB-231 breast
[26] = test system: MDA-MB-435
[27] = test system: MDA-N
[28] = test system: MOLT-4 leukemia
[29] = test system: NCI-H226 lung
[30] = test system: NCI-H23 lung
[31] = test system: NCI-H460 lung
[32] = test system: NCI-H522 lung
[33] = test system: NCI/ADR-RES ovarian
[34] = test system: OVCAR-3 ovarian
[35] = test system: OVCAR-4 ovarian
[36] = test system: OVCAR-8 ovarian
[37] = test system: PC-3 prostate
[38] = test system: RPMI-8226 leukemia
[39] = test system: RXF 393 renal
[40] = test system: SF-268 CNS
[41] = test system: SF-295 CNS
[42] = test system: SF-539 CNS
[43] = test system: SK-MEL-2 melanoma
[44] = test system: SK-MEL-28 melanoma
[45] = test system: SK-MEL-5 melanoma
[46] = test system: SK-OV-3 ovarian
[47] = test system: SN12C renal
[48] = test system: SNB-19 CNS
[49] = test system: SNB-75 CNS
[50] = test system: SR leukemia
[51] = test system: SW-620 colon
[52] = test system: T-47D breast
[53] = test system: TK-10 renal
[54] = test system: U251 CNS
[55] = test system: UACC-257 melanoma
[56] = test system: UACC-62 melanoma
[57] = test system: UO-31 renal
[58] = test system: 786-0 renal
[59] = test system: OVCAR-5 ovarian

SMILES: CC(C)OP(=O)(OC(C)C)C(C(C)C)N(C)C(N)=NC#N (centres undefined)
- TGI [1]: > 100 µM
- TGI [2]: > 100 µM
- TGI [3]: > 100 µM
- TGI [4]: > 100 µM
- TGI [5]: > 100 µM
- TGI [6]: > 100 µM
- TGI [7]: > 100 µM
- TGI [8]: > 100 µM
- TGI [9]: > 100 µM
- TGI [10]: > 100 µM
- TGI [11]: > 100 µM
- TGI [12]: > 100 µM
- TGI [13]: > 100 µM
- TGI [14]: > 100 µM
- TGI [15]: > 100 µM
- TGI [16]: > 100 µM
- TGI [17]: > 100 µM
- TGI [18]: > 100 µM
- TGI [19]: > 100 µM
- TGI [20]: > 100 µM
- TGI [21]: > 100 µM
- TGI [22]: > 100 µM
- TGI [23]: > 100 µM
- TGI [24]: > 100 µM
- TGI [25]: > 100 µM
- TGI [26]: > 100 µM
- TGI [27]: > 100 µM
- TGI [28]: > 100 µM
- TGI [29]: > 100 µM
- TGI [30]: > 100 µM
- TGI [31]: > 100 µM
- TGI [32]: > 100 µM
- TGI [33]: > 100 µM
- TGI [34]: > 100 µM
- TGI [35]: > 100 µM
- TGI [36]: > 100 µM
- TGI [37]: > 100 µM
- TGI [38]: > 100 µM
- TGI [39]: > 100 µM
- TGI [40]: > 100 µM
- TGI [41]: > 100 µM
- TGI [42]: > 100 µM
- TGI [43]: > 100 µM
- TGI [44]: > 100 µM
- TGI [45]: > 100 µM
- TGI [46]: > 100 µM
- TGI [47]: > 100 µM
- TGI [48]: > 100 µM
- TGI [49]: > 100 µM
- TGI [50]: > 100 µM
- TGI [51]: > 100 µM
- TGI [52]: > 100 µM
- TGI [53]: > 100 µM
- TGI [54]: > 100 µM
- TGI [55]: > 100 µM
- TGI [56]: > 100 µM
- TGI [57]: > 100 µM

SMILES: COc1cc(C)cc(C(=O)/C=C/c2ccccc2)c1O
- TGI [58]: 37.3 µM
- TGI [1]: 33.3 µM
- TGI [2]: > 100 µM
- TGI [3]: 33.1 µM
- TGI [4]: 37.8 µM
- TGI [5]: 39.1 µM
- TGI [6]: 84.1 µM
- TGI [7]: 38.1 µM
- TGI [8]: 29.4 µM
- TGI [9]: 47.8 µM
- TGI [10]: 38 µM
- TGI [11]: 34.9 µM
- TGI [12]: 40.9 µM
- TGI [13]: > 100 µM
- TGI [14]: 40.3 µM
- TGI [15]: 31.2 µM
- TGI [16]: > 100 µM
- TGI [17]: 34.7 µM
- TGI [18]: 30.5 µM
- TGI [19]: > 100 µM
- TGI [20]: 41.2 µM
- TGI [21]: 34.8 µM
- TGI [22]: 34.8 µM
- TGI [24]: 49 µM
- TGI [25]: 47.9 µM
- TGI [26]: 83.6 µM
- TGI [27]: 55.2 µM
- TGI [28]: 69.8 µM
- TGI [29]: 73.9 µM
- TGI [30]: 32.4 µM
- TGI [31]: 44.7 µM
- TGI [32]: 50.8 µM
- TGI [33]: 52 µM
- TGI [34]: 47.8 µM
- TGI [35]: 45.9 µM
- TGI [59]: 34.9 µM
- TGI [36]: 40 µM
- TGI [37]: 49.8 µM
- TGI [38]: 63.3 µM
- TGI [39]: 35.7 µM
- TGI [40]: 88.1 µM
- TGI [41]: 39.4 µM
- TGI [43]: 48.2 µM
- TGI [44]: 50.7 µM
- TGI [45]: 40.4 µM
- TGI [46]: 83.5 µM
- TGI [47]: 34 µM
- TGI [48]: 38.5 µM
- TGI [49]: 72.1 µM
- TGI [50]: 77.6 µM
- TGI [51]: 52.3 µM
- TGI [52]: 44.6 µM
- TGI [53]: 35.8 µM
- TGI [54]: 35.6 µM
- TGI [55]: 37.7 µM
- TGI [56]: 33.6 µM
- TGI [57]: 32.4 µM
